How the values were obtained:
[1] = biological target: T1, PI3Kα (Homo sapiens, UniProt P42336); assay: In vitro PI3 kinase enzyme assay (PI3K ATP loss), alpha; type: biochemical; details: average if run more than once; read-out: ATP Loss (PBKα) IC50 μM (Avg)
T1 construct: Full length p110 subunits of PI3K α, β and δ, N-terminally labeled with polyHis tag; polyHis (N); made in house; host or cells: Sf9 insect cells (baculovirus)
Procedure: (§1) Full length p110 subunits of PI3K α, β and δ, N-terminally labeled with polyHis tag, can be co-expressed with p85 with Baculo virus expression vectors in sf9 insect cells. P110/p85 heterodimers can be purified by sequential Ni-NTA, Q-HP, Superdex-100 chromatography. Purified α, β and δ isozymes can be stored at −20° C. in 20 mM Tris, pH 8, 0.2M NaCl, 50% glycerol, 5 mM DTT, 2 mM Na cholate. […] The γ isozyme can be purified by sequential Ni-NTA, Superdex-200, Q-HP chromatography. The γ isozyme can be stored frozen at −80° C. in NaH2PO4, pH 8, 0.2M NaCl, 1% ethylene glycol, 2 mM β-mercaptoethanol.
(§2) In Vitro PI3 Kinase Enzyme Assays (PI3K Atploss)
(§3) PI3K enzyme assays (alpha, beta, delta and gamma) can be performed in 25 μL with the above final concentrations of components in white polyproplyene plates. Phosphatidyl inositol phosphoacceptor, PtdIns(4,5)P2 (eg. P4508) can be obtained from Echelon Biosciences, Salt Lake City, Utah. […] Test compounds can be dissolved in DMSO and diluted with three-fold serial dilutions. The compound in DMSO (1 μL) may be added per test well, and the inhibition relative to reactions containing no compound, with and without enzyme can be determined After assay incubation at RT, the reaction can be stopped and residual ATP can be determined by addition of an equal volume of a commercial ATP bioluminescence kit (Perkin Elmer EasyLite, Perkin Elmer, Waltham, Mass.) according to the manufacturer's instructions, and detected using an Analyst GT luminometer.

[2] = biological target: T2, PI3Kβ (Homo sapiens, UniProt P42338); assay: In vitro PI3 kinase enzyme assay (PI3K ATP loss), beta; type: biochemical; details: average if run more than once
T2 construct: Full length p110 subunits of PI3K α, β and δ, N-terminally labeled with polyHis tag; polyHis (N); made in house; host or cells: Sf9 insect cells (baculovirus)
T2 sequence (P42338 whole entry): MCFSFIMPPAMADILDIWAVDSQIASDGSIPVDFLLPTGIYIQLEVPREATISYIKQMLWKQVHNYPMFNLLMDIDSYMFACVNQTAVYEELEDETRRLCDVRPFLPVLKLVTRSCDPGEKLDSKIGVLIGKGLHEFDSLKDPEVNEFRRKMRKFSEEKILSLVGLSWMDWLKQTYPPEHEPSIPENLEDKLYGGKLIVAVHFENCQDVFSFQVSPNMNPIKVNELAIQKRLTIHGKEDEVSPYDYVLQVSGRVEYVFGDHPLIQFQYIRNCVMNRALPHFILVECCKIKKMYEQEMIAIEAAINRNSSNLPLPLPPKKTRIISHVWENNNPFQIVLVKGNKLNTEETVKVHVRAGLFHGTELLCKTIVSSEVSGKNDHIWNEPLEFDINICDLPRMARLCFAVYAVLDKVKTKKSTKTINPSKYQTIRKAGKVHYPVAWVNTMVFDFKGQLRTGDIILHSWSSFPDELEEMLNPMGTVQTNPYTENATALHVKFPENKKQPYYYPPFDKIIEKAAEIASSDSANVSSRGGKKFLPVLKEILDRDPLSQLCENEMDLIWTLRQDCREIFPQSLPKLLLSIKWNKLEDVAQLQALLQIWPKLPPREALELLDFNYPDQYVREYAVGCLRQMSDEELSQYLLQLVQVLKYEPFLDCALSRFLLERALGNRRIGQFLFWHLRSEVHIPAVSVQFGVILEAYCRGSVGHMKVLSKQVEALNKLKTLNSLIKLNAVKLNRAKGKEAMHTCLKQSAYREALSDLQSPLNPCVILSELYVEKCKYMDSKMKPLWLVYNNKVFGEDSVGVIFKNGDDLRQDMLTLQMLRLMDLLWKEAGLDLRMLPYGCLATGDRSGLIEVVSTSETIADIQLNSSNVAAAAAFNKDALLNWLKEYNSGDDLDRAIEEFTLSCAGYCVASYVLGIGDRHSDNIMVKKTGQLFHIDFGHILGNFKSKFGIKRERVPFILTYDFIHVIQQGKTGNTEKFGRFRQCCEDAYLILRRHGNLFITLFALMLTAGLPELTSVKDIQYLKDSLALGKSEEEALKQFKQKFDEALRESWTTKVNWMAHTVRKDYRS
T2 sequence (P27986 whole entry partner): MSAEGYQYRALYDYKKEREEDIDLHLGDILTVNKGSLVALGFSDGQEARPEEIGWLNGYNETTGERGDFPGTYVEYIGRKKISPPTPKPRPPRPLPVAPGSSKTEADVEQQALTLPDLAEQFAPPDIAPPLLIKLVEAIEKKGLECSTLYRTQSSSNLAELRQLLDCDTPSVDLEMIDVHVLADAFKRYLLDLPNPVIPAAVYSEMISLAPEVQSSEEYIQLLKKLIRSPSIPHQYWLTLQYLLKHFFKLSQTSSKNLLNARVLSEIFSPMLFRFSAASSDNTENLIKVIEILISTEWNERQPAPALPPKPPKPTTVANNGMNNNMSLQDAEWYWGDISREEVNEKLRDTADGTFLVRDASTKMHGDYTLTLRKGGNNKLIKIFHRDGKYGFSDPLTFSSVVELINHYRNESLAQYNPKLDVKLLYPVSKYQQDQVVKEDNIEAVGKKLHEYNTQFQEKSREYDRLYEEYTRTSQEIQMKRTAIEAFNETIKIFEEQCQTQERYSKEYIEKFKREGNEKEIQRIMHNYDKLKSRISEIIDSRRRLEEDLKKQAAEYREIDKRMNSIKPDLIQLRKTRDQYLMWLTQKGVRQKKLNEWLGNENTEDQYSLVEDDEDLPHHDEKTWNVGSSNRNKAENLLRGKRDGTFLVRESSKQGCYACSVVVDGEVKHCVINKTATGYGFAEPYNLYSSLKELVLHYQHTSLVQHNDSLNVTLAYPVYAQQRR
Procedure: as §1, §2, §3

[3] = test system: phosphorylation of Akt at Ser473; assay: Cell-based phospho-Akt Ser473 assay (HCT116 cell); details: HCT 116 human colon carcinoma cells, IGF-1 stimulated; average
Source text: Cell-Based Phospho-Akt Ser473 Assay (HCT116 Cell)
This assay determines the ability of a compound to inhibit the phosphorylation of […] in Akt using a MSD based sandwich immunoassay (Meso Scale Detection, Meso Scale Discovery (MSD), Gaithersburg, Md.). HCT 116 human colon carcinoma cell lines can be grown in McCoy's 5A growth medium (GIBCO, Carlsbad, Calif.) containing 10% FBS (GIBCO, Carlsbad, Calif.) and X1 Penicillin-streptomycin-glutamine (GIBCO, Carlsbad, Calif.). Prior to the assay, cells can be detached from the culture flask with trypsin, and re-suspended in complete media to give a final concentration of 1.6×10^5 cells per mL. Aliquots (100 μl) of the HCT116 cell suspension can be seeded into each well of a 96 well tissue culture plate to give a final density of 16,000 cells per well. Cells can then be incubated overnight at 37° C.
The following day the cells can be treated with serially diluted test compounds and incubated for 2 hours at 37° C. The culture media on the HCT 116 cells can be replaced with 189 μL McCoys media, supplemented with 0.1% BSA (ICN Biomedicals, Inc., Costa Mesa, Calif.). Compounds can be prepared as either 10 mM or 0.5 mM stock solutions in DMSO, and serially diluted 3 fold in a 10-point dose-response curve to give final concentrations that are 200-fold greater than the desired final test concentration. Aliquots (1 μL) of serially-diluted compounds can be transferred to 96 well tissue culture plates containing the HCT 116 cells. […] As a maximum response control, wells can contain 0.5% DMSO in place of compound. The plates can be mixed at 700 rpm for 2 min to ensure even distribution of the test compound and incubated for 2 hours at 37° C. Cells can then be stimulated with insulin-like growth factor 1 (Sigma, St Louis, Mo.) at final concentration of 100 ng/ml for 15 minutes at 37° C. The media can then be removed and the cells treated with 80 μL cell-lysis buffer (MSD) containing a cocktail of protease and phosphatase inhibitors for one hour at 4° C.
25 μL Cell lysate can then be transferred to pre-blocked MSD assay plates pre-coated with a capture antibody specific for Akt, and the plates can be incubated for 2 hours at room temperature. The cell lysates can then be removed and plates can then be washed four times with 200 μl per well of Tris wash buffer (500 mM Tris, PH 7.5, 1.5 M NaCl, 0.2% Tween-20). Subsequently cells can be incubated for 1 hour at room temperature with a 25 μL solution containing the detection antibody, anti-phospho Akt (Ser 473) labeled with an electrochemiluminescent compound (Meso Scale Discovery SULPHO-TAG™ label, MSD, Gaithersburg, Md.). The detection antibody can be removed and plates can then be washed four times with 200 μL per well of Tris wash buffer. An aliquot of 150 μL of diluted MSD read buffer can then be applied to each well, and the electrochemiluminescent signal can be measured using a MSD SECTOR™ plate reader (Meso Scale Discovery, Gaithersburg, Md.). This instrument measures the intensity of emitted light to determine a quantitative measure of phosphorylated Akt in each well. The dose-response data obtained with each compound can be analyzed and the IC50 inhibition of Akt phosphorylation at Ser473 can be calculated.
Activity data for the compounds tested in the PI3K cell based Akt assay is provided in Table 1 under the column heading HCT116 Cell.

T1 sequence (P42336 whole entry): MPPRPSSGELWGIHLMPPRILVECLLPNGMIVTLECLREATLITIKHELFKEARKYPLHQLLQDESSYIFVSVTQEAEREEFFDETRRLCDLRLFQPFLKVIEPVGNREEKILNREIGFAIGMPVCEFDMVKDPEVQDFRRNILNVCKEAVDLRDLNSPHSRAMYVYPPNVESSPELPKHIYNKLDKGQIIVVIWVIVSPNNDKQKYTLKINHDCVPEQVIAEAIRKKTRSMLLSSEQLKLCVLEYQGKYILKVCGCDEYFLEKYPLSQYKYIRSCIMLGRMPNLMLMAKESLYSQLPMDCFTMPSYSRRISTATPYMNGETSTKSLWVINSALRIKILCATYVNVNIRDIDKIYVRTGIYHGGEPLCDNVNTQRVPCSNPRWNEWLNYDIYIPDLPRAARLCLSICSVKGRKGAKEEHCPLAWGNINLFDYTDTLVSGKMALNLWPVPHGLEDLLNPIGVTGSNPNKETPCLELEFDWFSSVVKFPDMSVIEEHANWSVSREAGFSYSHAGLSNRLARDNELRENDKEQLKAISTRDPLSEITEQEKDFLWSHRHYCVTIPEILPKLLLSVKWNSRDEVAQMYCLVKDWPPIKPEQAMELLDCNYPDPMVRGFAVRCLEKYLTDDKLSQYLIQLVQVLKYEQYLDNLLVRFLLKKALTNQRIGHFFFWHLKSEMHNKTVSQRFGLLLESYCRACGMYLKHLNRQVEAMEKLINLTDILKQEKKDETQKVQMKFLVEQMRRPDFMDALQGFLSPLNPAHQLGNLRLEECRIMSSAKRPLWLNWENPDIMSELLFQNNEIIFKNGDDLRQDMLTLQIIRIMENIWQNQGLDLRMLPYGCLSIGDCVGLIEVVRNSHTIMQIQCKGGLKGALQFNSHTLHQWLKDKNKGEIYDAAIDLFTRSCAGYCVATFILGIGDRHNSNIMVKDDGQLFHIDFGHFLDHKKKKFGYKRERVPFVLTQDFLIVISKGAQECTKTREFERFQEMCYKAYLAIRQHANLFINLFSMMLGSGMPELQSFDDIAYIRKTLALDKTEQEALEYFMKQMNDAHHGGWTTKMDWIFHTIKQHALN
T1 sequence (P27986 whole entry partner): as the sequence (P27986 whole entry partner) above

SMILES | IC50 [1] | IC50 [2] | IC50 [3]
CS(=O)(=O)Nc1cc(-c2ccc3nccc(Oc4ccccc4)c3c2)cnc1Cl [Example 5, N-(2-chloro-5-(4-phenoxy-6-quinolinyl)-3-pyridinyl)methanesulfonamide] | 0.255 µM | 0.105 µM | 1.14 µM
CS(=O)(=O)Nc1cc(-c2ccc3ncccc3c2)cnc1Cl [Example 12, N-(2-chloro-5-(6-quinolinyl)-3-pyridinyl)methanesulfonamide] | 0.0689 µM | 0.365 µM | 2.65 µM
O=S(=O)(Nc1cc(-c2ccc3nccc(N4CCC(O)C4)c3c2)cnc1Cl)c1ccc(F)cc1 (centres unmarked) [Example 26, N-(2-chloro-5-(4-(3-hydroxy-1-pyrrolidinyl)-6-quinolinyl)-3-pyridinyl)-4-fluorobenzenesulfonamide] | 0.0111 µM | 0.0778 µM | 2.96 µM
COc1ccc(S(=O)(=O)Nc2cc(-c3ccc4nc(N)ccc4c3)cnc2Cl)cc1 [Example 46, N-(5-(2-amino-6-quinolinyl)-2-chloro-3-pyridinyl)-4-methoxybenzenesulfonamide] | 0.136 µM | 0.18 µM | 0.108 µM
COCC1CCCN1c1cnc2ccc(-c3cnc(Cl)c(NS(=O)(=O)c4ccc(F)cc4)c3)cc2n1 (centres unmarked) [Example 68, N-(2-chloro-5-(3-(2-(methoxymethyl)-1-pyrrolidinyl)-6-quinoxalinyl)-3-pyridinyl)-4-fluorobenzenesulfonamide] | 0.0081 µM | 0.0358 µM | 0.0434 µM
O=S(=O)(Nc1cc(-c2ccc3ncc(O)cc3c2)cnc1Cl)c1ccc(F)cc1 [Example 22, N-(2-chloro-5-(3-hydroxy-6-quinolinyl)-3-pyridinyl)-4-fluorobenzenesulfonamide] | 0.0114 µM | 0.0552 µM | 0.654 µM
COc1ccc(S(=O)(=O)Nc2cc(-c3ccc4nc(NC(C)=O)ccc4c3)cnc2Cl)cc1 [Example 45, N-(6-(6-chloro-5-(((4-methoxyphenyl)sulfonyl)amino)-3-pyridinyl)-2-quinolinyl)acetamide] | 0.0192 µM | 0.0597 µM | 0.0646 µM
Oc1cc(-c2ccc3nccc(N4CCOCC4)c3c2)cnc1Cl [Example 19, 2-chloro-5-(4-(4-morpholinyl)-6-quinolinyl)-3-pyridinol] | 0.0258 µM | 0.644 µM | 0.311 µM
O=S(=O)(Nc1cc(-c2ccc3nccc(-c4ccccc4)c3c2)cnc1Cl)c1ccc(F)cc1 [Example 36, N-(2-chloro-5-(4-phenyl-6-quinolinyl)-3-pyridinyl)-4-fluorobenzenesulfonamide] | 0.0071 µM | 0.0149 µM | 0.0914 µM
O=S(=O)(Nc1cc(-c2ccnc3cccnc23)cnc1Cl)c1ccc(F)cc1 [Example 42, N-(2-chloro-5-(1,5-naphthyridin-4-yl)-3-pyridinyl)-4-fluorobenzenesulfonamide] | 0.0875 µM | 0.62 µM | 1.73 µM
CC(Nc1cnc2ccc(-c3cnc(Cl)c(NS(=O)(=O)c4ccc(F)cc4)c3)cc2n1)c1ccc(F)cc1 (centres unmarked) [Example 60, N-(2-chloro-5-(3-((1-(4-fluorophenyl)ethyl)amino)-6-quinoxalinyl)-3-pyridinyl)-4-fluorobenzenesulfonamide] | 0.0103 µM | 0.0436 µM | 0.569 µM
Nc1nc2ccc(-c3cnc(Cl)c(NS(=O)(=O)c4ccc(F)cc4)c3)cc2[nH]c1=O [Example 43, N-(5-(2-amino-3-oxo-3,4-dihydro-6-quinoxalinyl)-2-chloro-3-pyridinyl)-4-fluorobenzenesulfonamide] | 0.0169 µM | 0.0648 µM | 5.04 µM
CS(=O)(=O)Nc1cc(-c2ccc3nccc(N4CCOCC4)c3c2)cnc1Cl [Example 11, N-(2-chloro-5-(4-(4-morpholinyl)-6-quinolinyl)-3-pyridinyl)methanesulfonamide] | 0.0458 µM | 0.156 µM | 0.0501 µM

Stronger by IC50 [1], values ahead:

IC50 [1] | IC50 [2] | IC50 [3] | SMILES
0.0029 µM | 0.0648 µM | 0.0203 µM | CC1CN(c2cnc3ccc(-c4cnc(Cl)c(NS(=O)(=O)c5ccc(F)cc5)c4)cc3n2)CC(C)O1 (centres unmarked) [Example 67, N-(2-chloro-5-(3-(2,6-dimethyl-4-morpholinyl)-6-quinoxalinyl)-3-pyridinyl)-4-fluorobenzenesulfonamide]
0.0056 µM | 0.0502 µM | 0.158 µM | COc1ccc(CNc2cnc3ccc(-c4cnc(Cl)c(NS(=O)(=O)c5ccc(F)cc5)c4)cc3n2)cc1 [Example 63, N-(2-chloro-5-(3-((4-methoxybenzyl)amino)-6-quinoxalinyl)-3-pyridinyl)-4-fluorobenzenesulfonamide]
0.0041 µM | 0.0126 µM | 0.176 µM | O=S(=O)(Nc1cc(-c2ccc3nccc(N4CCC(O)CC4)c3c2)cnc1Cl)c1ccc(F)cc1 [Example 27, N-(2-chloro-5-(4-(4-hydroxy-1-piperidinyl)-6-quinolinyl)-3-pyridinyl)-4-fluorobenzenesulfonamide]
0.0022 µM | 0.0079 µM | 0.0451 µM | O=S(=O)(Nc1cc(-c2ccc3ncc(NCCOc4ccccc4)nc3c2)cnc1Cl)c1ccc(F)cc1 [Example 57, N-(2-chloro-5-(3-((2-phenoxyethyl)amino)-6-quinoxalinyl)-3-pyridinyl)-4-fluorobenzenesulfonamide]
0.005 µM | 0.0248 µM | 0.0117 µM | O=S(=O)(Nc1cc(-c2ccc3nccc(N4CCOCC4)c3c2)cnc1Cl)c1ccccc1F [Example 32, N-(2-chloro-5-(4-(4-morpholinyl)-6-quinolinyl)-3-pyridinyl)-2-fluorobenzenesulfonamide]
0.0034 µM | 0.0824 µM | 0.0635 µM | O=S(=O)(Nc1cc(-c2ccc3ncc(N4CCC(F)(F)CC4)nc3c2)cnc1Cl)c1ccc(F)cc1 [Example 58, N-(2-chloro-5-(3-(4,4-difluoro-1-piperidinyl)-6-quinoxalinyl)-3-pyridinyl)-4-fluorobenzenesulfonamide]
0.0027 µM | 0.0842 µM | 0.141 µM | O=S(=O)(Nc1cc(-c2ccc3ncc(N4CCCCC4)nc3c2)cnc1Cl)c1ccc(F)cc1 [Example 54, N-(2-chloro-5-(3-(1-piperidinyl)-6-quinoxalinyl)-3-pyridinyl)-4-fluorobenzenesulfonamide]
0.0031 µM | 0.0225 µM | 0.136 µM | CC(C)(C)OC(=O)N1CCCC(CNc2cnc3ccc(-c4cnc(Cl)c(NS(=O)(=O)c5ccc(F)cc5)c4)cc3n2)C1 (centres unmarked) [Example 59, tert-butyl 3-(((7-(6-chloro-5-(((4-fluorophenyl)sulfonyl)amino)-3-pyridinyl)-2-quinoxalinyl)amino)methyl)-1-piperidinecarboxylate]
0.0041 µM | 0.0302 µM | 0.0228 µM | CC1CN(c2ccnc3ccc(-c4cnc(Cl)c(NS(=O)(=O)c5ccc(F)cc5)c4)cc23)CC(C)O1 (centres unmarked) [Example 30, N-(2-chloro-5-(4-(2,6-dimethyl-4-morpholinyl)-6-quinolinyl)-3-pyridinyl)-4-fluorobenzenesulfonamide]
0.0054 µM |  | 0.0115 µM | CC(C)N1CCN(c2cnc3ccc(-c4cnc(Cl)c(NS(=O)(=O)c5ccc(F)cc5)c4)cc3n2)CC1 [Example 21, N-(2-chloro-5-(3-(4-(1-methylethyl)-1-piperazinyl)-6-quinoxalinyl)-3-pyridinyl)-4-fluorobenzenesulfonamide]

Reference: US8415376B2, “Inhibitors of PI3 kinase” (Amgen Inc., priority 2008, dated 2013)
